How the values were obtained:
log P (lipophilicity) = type: physicochemical; conditions: n=3, data not shown
[1] = Tracer biodistribution studies in mice (γ-counter, % ID/g); conditions: BALB/c Ola/Hsd, mouse, in vivo
Procedure: Compounds [^11C]-1, [^11C]-2, [^11C]-3, [^11C]-4, [^11C]-6, [^11C]-7 and Technetium-99 m methoxy isobutyl isonitrile ([^99mTc]MIBI) biodistribution studies were carried out with BALB/c Ola/Hsd mice (7-8 week). Tracers were injected in a 10% EtOH/saline solution as vehicle. Either [^11C]-1 (62±15 μCi; […]; 122±13 μL), [^11C]-2 (68±12 μCi; 2.5±0.4 MBq; 188±1.3 μL), [^11C]-3 (70±17 μCi; 2.6±0.6 MBq; 185±5 μL), [^11C]-4 (18±5 μCi; […]; 195±2.2 μL or 1.24±0.93 MBq, 229±63 μL), [^11C]-6 (1.95±0.21 MBq, 83±41 μL), [^11C]-7 (2.01±0.16 MBq, 169±73 μL) or [^99mTc]mibi (14.2±1.7 μCi; 3.6±0.4 MBq; 97.7±12.5 μL) were injected via the lateral vein. At allotted time points (1, 5, 10, 15 min), blood was drawn from the orbital sinus, mice were sacrificed by cervical dislocation and selected organs (heart, lungs, liver and kidney) were excised, weighed and measured for their radioactive content using a γ-counter (1480 Wizard 3″). Distribution of activity was calculated as the percentage of injected dose per gram of organ (% ID/g). Activity uptake ratios of various organs were calculated by dividing the corresponding calculated % ID/gs.
Distribution of activity was calculated as the percentage of injected dose per gram of wet tissue (% ID/g). Activity uptake ratios of various organs were calculated by dividing the corresponding calculated % ID/g. Heart standardized uptake values (SUVs) were calculated by dividing the % ID in the heart of each rat by the percentage of heart weight of the total body weight of the animal.

For `CN(C)c1ccc([N+](C)(C)[11CH3])cc1` [[^11C]-3, [^11C](4-dimethylamino-phenyl)-trimethyl-ammonium iodide], the logP (log P (lipophilicity)) was -0.93 ± 0.1, the “radioactivity uptake in the heart” value ([1]; 1 min) was 48.7 % ID/g and the “radioactivity uptake in the heart” value ([1]; 5 min) was 47.7 % ID/g. The “radioactivity uptake in the heart” value ([1]; 10 min) was 40.15 % ID/g and the “radioactivity uptake in the heart” value ([1]; 15 min) was 28.5 % ID/g.
